Measurements taken from ChEMBL document CHEMBL4813999, “Mur ligases inhibitors with azastilbene scaffold: Expanding the structure-activity relationship” (Bioorg Med Chem Lett, 2021).
Converted amounts (≈) assume the structure as drawn.

Experiments:
[1] = Inhibition of MurE (unknown origin)
[2] = Inhibition of MurD (unknown origin)
[3] = system: Staphylococcus aureus; assay: Antibacterial activity against Staphylococcus aureus ATCC 29213 assessed as inhibition of bacterial growth; type: functional
[4] = system: Escherichia coli; assay: Antibacterial activity against Escherichia coli ATCC 25922 assessed as inhibition of bacterial growth; type: functional
[5] = Inhibition of MurD (unknown origin) at 100 uM relative to control
[6] = Inhibition of MurF (Unknown origin) at 100 uM relative to control
[7] = Inhibition of MurF (unknown origin)
[8] = Inhibition of MurC (unknown origin) at 100 uM relative to control
[9] = Inhibition of MurE (unknown origin) at 100 uM relative to control
[10] = Inhibition of MurC (unknown origin)

Row | Compound | IC50 [1] [µM] | IC50 [2] [µM] | MIC [3] [µM] | MIC [4] [µM] | inhibition [5] [%] | inhibition [6] [%] | IC50 [7] [µM] | inhibition [8] [%] | inhibition [9] [%] | IC50 [10] [µM]
1 | Cc1cc(-c2ccco2)cc(C)c1/C=C/c1cncc(C(N)=O)c1 | 156 | 168 | > 250 | > 250 | 40 | 76 | 31 | 20 | 51 | –
2 | Cc1cc(-c2ccncc2)cc(C)c1/C=C/c1cncc(-c2nnn[nH]2)c1 | – | – | > 250 | > 250 | 9 | 15 | – | 14 | 19 | –
3 | Cc1cc(N2CCCC2)cc(C)c1/C=C/c1cncc(-c2nnn[nH]2)c1 | – | – | 250 (≈ 86.6 µg/mL) | > 250 | 1 | 29 | – | 22 | 16 | –
4 | COc1ccccc1-c1cc(C)c(/C=C/c2cncc(-c3nnn[nH]3)c2)c(C)c1 | – | 104 | 125 (≈ 47.9 µg/mL) | > 250 | 42 | 0 | – | 35 | 33 | –
5 | Cc1cc(-c2ccco2)cc(C)c1/C=C/c1cncc(C2=NCCS2)c1 | 150 | 85 | > 250 | > 250 | 70 | 58 | 71 | 56 | 46 | 82
6 | Cc1cc(-c2ccco2)cc(C)c1/C=C/c1cncc(-c2nn[nH]n2)c1 | 79 | 104 | > 250 | > 250 | 55 | 74 | 59 | 30 | 51 | –
7 | COc1cccc(-c2cc(C)c(/C=C/c3cncc(-c4nnn[nH]4)c3)c(C)c2)c1 | – | – | > 250 | > 250 | 23 | 18 | – | 15 | 21 | –
8 | Cc1cc(-c2cccc(CO)c2)cc(C)c1/C=C/c1cncc(-c2nnn[nH]2)c1 | – | – | > 250 | > 250 | 14 | 24 | – | 25 | 23 | –
9 | Cc1cc(-c2ccco2)cc(C)c1/C=C/c1cccc(-c2nnn[nH]2)c1 | – | 107 | > 250 | > 250 | 64 | 21 | – | 5 | 30 | –
10 | Cc1cc(Br)cc(C)c1/C=C/c1cncc(-c2nnn[nH]2)c1 | – | 131 | 250 (≈ 89.1 µg/mL) | > 250 | 46 | 32 | – | 30 | 38 | –
11 | COc1ccc(-c2cc(C)c(/C=C/c3cncc(-c4nnn[nH]4)c3)c(C)c2)cc1 | – | – | 250 (≈ 95.9 µg/mL) | > 250 | 30 | 25 | – | 30 | 37 | –
12 | Cc1cc(-c2ccco2)cc(C)c1/C=C/c1cc(-c2nnn[nH]2)ccn1 | 97 | 56 | > 250 | > 250 | 73 | 84 | 17 | 23 | 55 | –
13 | Cc1cc(-c2ccco2)cc(C)c1/C=C/c1cncc(C(=O)O)c1 | – | 64 | > 250 | > 250 | 70 | 47 | 109 | 43 | 27 | 153
14 | Cc1cc(-c2ccco2)cc(C)c1/C=C/c1cncc(C#N)c1 | – | – | > 250 | > 250 | 27 | 21 | – | 22 | 35 | –
15 | Cc1cc(-c2cccnc2)cc(C)c1/C=C/c1cncc(-c2nn[nH]n2)c1 | – | – | > 250 | > 250 | 10 | 0 | – | 10 | 4 | –
16 | Cc1cc(-c2ccco2)cc(C)c1/C=C/c1cncc(C2=NCCN2)c1 | – | 160 | 31 (≈ 10.6 µg/mL) | 250 (≈ 85.9 µg/mL) | 47 | 40 | 201 | 42 | 10 | 151
17 | Cc1cc(-c2ccco2)cc(C)c1/C=C/c1cncc(C2=NCCO2)c1 | – | 126 | 125 (≈ 43.1 µg/mL) | > 250 | 45 | 44 | 144 | 44 | 32 | 153
18 | Cc1cc(-c2ccoc2)cc(C)c1/C=C/c1cncc(-c2nnn[nH]2)c1 | – | – | > 250 | > 250 | 22 | 12 | – | 16 | 18 | –
19 | Cc1cc(N2CCCCC2=O)cc(C)c1/C=C/c1cncc(-c2nnn[nH]2)c1 | – | – | > 250 | > 250 | 14 | 38 | – | 15 | 30 | –
20 | Cc1cc(-c2cccc(C(=O)O)c2)cc(C)c1/C=C/c1cncc(-c2nnn[nH]2)c1 | – | – | > 250 | > 250 | 26 | 18 | – | 33 | 39 | –
21 | COC(=O)c1cccc(-c2cc(C)c(/C=C/c3cncc(-c4nnn[nH]4)c3)c(C)c2)c1 | – | – | > 250 | > 250 | 16 | 16 | – | 15 | 23 | –
